Experimental data taken from patent US4959370A, “Alkaloids of marine origin” (priority 1989, dated 1990).
Read-outs that look alike come from different tables or passages of the source.

Legend:
[1] = tested on: fourth larval stage of N. brasiliensis; test: In vitro anthelmintic activity against fourth larval stage (L4); type: cell-based, Nippostrongylus brasiliensis; details: 50 μg/ml, 37° C., seven days; for inhibition at 50 µg/mL: Nippostrongylus brasiliensis, 168 h
Protocol: To obtain the fourth larval stage (L4) of Nippostrongylus brasiliensis, rats were inoculated with 6,500 to 6,750 N. brsiliensis third stage larvae subcutaneously. Seventy-two hours later the rats were sacrificed and the fourth stage larvae harvested. Compounds of Formula (I) were tested at 50 μg/mL against the fourth larval stage of N. brasiliensis at approximately 50 L4/well. This mixture was incubated at 37° C. for a total of seven days and then read for activity. Parameters used to determine drug activity were motility, viability, and the ability of fourth stage larvae to molt to the adult, i.e., cast formation. A compound was defined as active if (1) cast formation was reduced by 40 percent or more; or (2) viability and motility together were reduced 40 percent or more. | Compound B is a compound of Formula (I) where R is methyl. *Percent cast | reduction was determined by the following: | **Percent viability reduction was determined by the | following: | ***Percent motility reduction was a subjective evaluation

[2] = molecular target: T1, purified cloned reverse transcriptase (RT) (HIV-1 M:B_HXB2R, UniProt P04585); test: In vitro reverse transcriptase inhibitory activity; type: biochemical; details: 400 μg/ml in 10 percent DMSO; 37° C., 0, 15, and 30 minutes; decrease in [3H] TTP incorporation vs controls
T1 construct: mature chain of Gag-Pol polyprotein
Protocol: The activity of purified cloned reverse transcriptase (RT), in the presence or absence of test compound, was assayed by measuring the incorporation of tritiated thymidine triphosphate ([^3 H] TTP) into a DNA chain using polyadenosine as the template and oligodeoxythymidine as the primer (Biochem. Pharm. 1987, Vol. 36, No. 24 pp. 4361-4362). The final concentration of the compounds tested for anti-RT activity was 400 μg/ml in 10 percent DMSO. Controls contained 10 percent DMSO only. After incubation at 37° C. for 0, 15, and 30 minutes, an aliquot of the incubation mixture was spotted on cellulose paper, washed in TCA-pyrophosphate solution to remove [^3 H] TTP, dried and analyzed for the rate of incorporation of radioactivity. The compounds which inhibited more than 50 percent of the enzyme activity, as determined by a decrease in radioactivity compared with controls, were considered active.

[3] = cast formation (molt to adult), read-out: PERCENT REDUCTION COMPARED TO CONTROL: Casts
[4] = subjective evaluation, read-out: PERCENT REDUCTION COMPARED TO CONTROL: Motility

For CNc1c2c(c3nc4ccccc4c4c3c1N=C4)NCCC2=O [Compound A, plakinidine A], the “PERCENT REDUCTION COMPARED TO CONTROL: Viability” value [1] was 100%, the inhibition at 50 µg/mL [1, 3] was 100% and the inhibition at 50 µg/mL [1, 4] was 100%. The inhibition at 400 µg/mL [2] was 83%.

CN(C)c1c2c(c3nc4ccccc4c4c3c1N=C4)NCCC2=O [Compound B, plakinidine B] was tested, and the “PERCENT REDUCTION COMPARED TO CONTROL: Viability” value [1] was 100%, the inhibition at 50 µg/mL [1, 3] was 100% and the inhibition at 50 µg/mL [1, 4] was 100%.
